From ChEMBL document CHEMBL1201862, “PubChem BioAssay data set” (2004)
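Cultured in 96-well plates, cells were exposed to test compound for 48 hours across five concentrations. GI50 = concentration required for 50% inhibition of growth.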 Activity calls are given as the source filed them. No stated cut-off is given here; in the data, active = GI50 up to about 1.1 µM and inactive = higher.

Tests used:
Test in all cases: inhibition of tumour cell growth, NCI panel, 48 h
[1] = tested on: OVCAR-8
[2] = tested on: HCT-116
[3] = tested on: M14
[4] = tested on: T47D
[5] = tested on: K562
[6] = tested on: A549
[7] = tested on: HCT-15
[8] = tested on: SNB-19
[9] = tested on: OVCAR-3
[10] = tested on: IGROV-1
[11] = tested on: SK-MEL-2
[12] = tested on: HCC 2998
[13] = tested on: HT-29
[14] = tested on: NCI-H460
[15] = tested on: OVCAR-4
[16] = tested on: LOX IMVI
[17] = tested on: UACC-257
[18] = tested on: SK-MEL-28
[19] = tested on: NCI-H226

Cc1cc(S(=O)(=O)Nc2nnc3ccccn23)c(S)cc1Cl
GI50 [1]: > 100 µM (inactive)
GI50 [2]: > 100 µM (inactive)
GI50 [3]: > 100 µM (inactive)
GI50 [4]: > 100 µM (inactive)
GI50 [5]: > 100 µM (inactive)
GI50 [6]: 37.2 µM (inactive)
GI50 [7]: > 100 µM
GI50 [8]: > 100 µM (inactive)
GI50 [9]: > 100 µM (inactive)
GI50 [10]: > 100 µM (inactive)
GI50 [11]: 79.4 µM (inactive)
GI50 [12]: > 100 µM (inactive)
GI50 [13]: > 100 µM (inactive)
GI50 [14]: 40.1 µM (inactive)
GI50 [15]: > 100 µM (inactive)
GI50 [16]: > 100 µM (inactive)
GI50 [17]: > 100 µM (inactive)
GI50 [18]: > 100 µM (inactive)

COc1ccc2c(c1)CC[C@@H]1[C@@H]2CC[C@]2(C)C(=O)/C(=C/c3cc(OC)c(OC)c(OC)c3)C[C@@H]12
GI50 [2]: 31.6 µM (inactive)
GI50 [3]: 23.2 µM (inactive)
GI50 [4]: 67 µM (inactive)
GI50 [6]: 40.9 µM (inactive)
GI50 [7]: 70 µM
GI50 [8]: 52.6 µM (inactive)
GI50 [9]: 19.5 µM (inactive)
GI50 [11]: 19 µM (inactive)
GI50 [12]: 42.8 µM (inactive)
GI50 [14]: 31.8 µM (inactive)
GI50 [15]: 40.4 µM (inactive)

COc1ccc2c(c1)c1c(C)c3cnccc3c(C)c1n2CCCN
GI50 [1]: 0.178 µM (active)
GI50 [2]: 0.0556 µM (active)
GI50 [3]: 0.145 µM (active)
GI50 [4]: 0.284 µM (active)
GI50 [6]: 0.296 µM (active)
GI50 [7]: 0.0925 µM
GI50 [8]: 0.29 µM (active)
GI50 [9]: 0.453 µM (active)
GI50 [10]: 0.313 µM (active)
GI50 [11]: 0.401 µM (active)
GI50 [12]: 0.457 µM (active)
GI50 [13]: 0.117 µM (active)
GI50 [14]: 0.065 µM (active)
GI50 [15]: 0.0541 µM (active)
GI50 [16]: 0.0556 µM (active)
GI50 [17]: 0.518 µM (active)
GI50 [18]: 0.458 µM (active)

c1cc(CSP234N5CCN2CCN3CCN4CC5)ccc1CSP123N4CCN1CCN2CCN3CC4
GI50 [1]: > 100 µM (inactive)
GI50 [2]: 72.8 µM (inactive)
GI50 [3]: > 100 µM (inactive)
GI50 [4]: > 100 µM (inactive)
GI50 [5]: < 0.01 µM (active)
GI50 [6]: > 100 µM (inactive)
GI50 [7]: > 100 µM
GI50 [8]: > 100 µM (inactive)
GI50 [9]: 76.4 µM (inactive)
GI50 [10]: > 100 µM (inactive)
GI50 [11]: > 100 µM (inactive)
GI50 [12]: > 100 µM (inactive)
GI50 [13]: 53.2 µM (inactive)
GI50 [14]: > 100 µM (inactive)
GI50 [15]: > 100 µM (inactive)
GI50 [16]: 49.1 µM (inactive)
GI50 [17]: > 100 µM (inactive)
GI50 [18]: > 100 µM (inactive)

NC(=O)C1CCCN1C(=O)C(Cc1c[nH]cn1)NC(=O)C1CCCC1 (centres undefined)
GI50 [1]: > 100 µM (inactive)
GI50 [19]: > 100 µM (inactive)
GI50 [2]: > 100 µM (inactive)
GI50 [3]: > 100 µM (inactive)
GI50 [4]: > 100 µM (inactive)
GI50 [5]: > 100 µM (inactive)
GI50 [6]: > 100 µM (inactive)
GI50 [7]: > 100 µM
GI50 [8]: > 100 µM (inactive)
GI50 [9]: > 100 µM (inactive)
GI50 [10]: > 100 µM (inactive)
GI50 [12]: > 100 µM (inactive)
GI50 [13]: > 100 µM (inactive)
GI50 [14]: > 100 µM (inactive)
GI50 [15]: > 100 µM (inactive)
GI50 [16]: > 100 µM (inactive)
GI50 [18]: > 100 µM (inactive)

CC(O)C1(CNc2cc(Cl)nc(N)n2)CCCCC1 (centres undefined)
GI50 [1]: > 100 µM (inactive)
GI50 [19]: > 100 µM (inactive)
GI50 [2]: > 100 µM (inactive)
GI50 [3]: > 100 µM (inactive)
GI50 [4]: 59 µM (inactive)
GI50 [5]: 69.3 µM (inactive)
GI50 [6]: 77.6 µM (inactive)
GI50 [7]: > 100 µM
GI50 [8]: > 100 µM (inactive)
GI50 [9]: > 100 µM (inactive)
GI50 [10]: > 100 µM (inactive)
GI50 [11]: > 100 µM (inactive)
GI50 [13]: > 100 µM (inactive)
GI50 [14]: > 100 µM (inactive)
GI50 [15]: 37.3 µM (inactive)
GI50 [16]: 91 µM (inactive)
GI50 [17]: 84.9 µM (inactive)
GI50 [18]: > 100 µM (inactive)
